Experimental data as given in ChEMBL document CHEMBL5352423, “Discovery of potent human dihydroorotate dehydrogenase inhibitors based on a benzophenone scaffold” (Eur J Med Chem, 2022).
≈ marks a conversion by molar mass, not a printed value. Calls of active or inactive are those of the source. The calls are words filed in the database; no cut-off is given here.

How the values were obtained:
[1] = Toxicity in NOD-SCID mouse xenografted with human Raji cells assessed as change in body weight at 1.5 mg/kg, po administered for 24 days; format: organism-based; conditions: in vivo, 576 h, time 24 day
Mus musculus = experiment: Immunosuppressive activity in NOD-SCID mouse xenografted with human HCT-116 cells at 1.5 mg/kg, po for 21 days; format: functional, organism-based; conditions: time 21.0 day
[2] = Toxicity in NOD-SCID mouse xenografted with human HCT-116 cells assessed as splenomegaly at 1.5 mg/kg, po administered for 21 days; format: organism-based; conditions: in vivo, 504 h, time 21 day
HCT-116 [3] = experiment: Antitumor activity against human HCT-116 cells xenografted in NOD-SCID mouse assessed as tumor growth inhibition at 1.5 mg/kg, po administered for 24 days relative to control; format: functional; conditions: HCT-116, 576 h, time 24 day, read-out: TGI
[4] = Toxicity in NOD-SCID mouse xenografted with human HCT-116 cells assessed as change in body weight at 1.5 mg/kg, po administered for 24 days; format: organism-based; conditions: in vivo, 576 h, time 24 day
Raji [5] = experiment: animal or person; conditions: Mus musculus, po, 576 h, read-out: TGI
Description: Antitumor activity against human Raji cells xenografted in NOD-SCID mouse assessed as tumor growth inhibition at 1.5 mg/kg, po administered for 24 days relative to control

[6] = Toxicity in NOD-SCID mouse xenografted with human Raji cells assessed as death at 1.5 mg/kg, po administered for 24 days; format: organism-based; conditions: in vivo, 576 h, time 24 day
HCT-116 [7] = experiment: Induction of cell cycle arrest in human HCT-116 cells assessed as accumulation cells in S-phase at 0.0625 uM for 24 hrs by PI/RNAse staining method (reference value: 30.2%); format: functional
[8] = Toxicity in BALB/c mouse assessed as change in blood lymphocytes administered at 500 mg/kg, po for 14 days; format: organism-based, Lymphocyte; conditions: in vivo, 336 h, time 14 day
Raji [9] = experiment: Induction of cell cycle arrest in human Raji cells assessed as accumulation cells in S-phase at 0.0625 uM for 24 hrs by PI/RNAse staining method (reference value: 42.8%); format: functional
U-937 = experiment: Antiproliferative activity against human U-937 cells incubated for 96 hrs by MTT assay; format: functional, cell-based; conditions: U-937, 96 h
HCT-116 [10] = experiment: Induction of cell cycle arrest in human HCT-116 cells assessed as accumulation cells in S-phase at 0.125 uM for 24 hrs by PI/RNAse staining method (reference value: 30.2%); format: functional
Raji [11] = experiment: Rescue of cell viability in human Raji cells assessed cell growth inhibition rate at 0.0125 to 0.2 uM in presence of uridine; format: functional; conditions: dose 0.0125-0.2 µM
[12] = Toxicity in BALB/c mouse assessed as change in blood MCH administered at 500 mg/kg, po for 14 days; format: organism-based; conditions: in vivo, 336 h, time 14 day
[13] = Toxicity in NOD-SCID mouse xenografted with human Raji cells assessed as death at 30 mg/kg, po administered for 24 days; format: organism-based; conditions: in vivo, 576 h, time 24 day
[14] = Toxicity in BALB/c mouse assessed as change in blood HGB administered at 500 mg/kg, po for 14 days; format: organism-based; conditions: in vivo, 336 h, time 14 day
[15] = biological target: T1, Dihydroorotate dehydrogenase (quinone), mitochondrial (Homo sapiens, UniProt Q02127); experiment: Inhibition of human DHODH at 100 nM for 30 mins relative to control
T1 sequence (Q02127 whole entry): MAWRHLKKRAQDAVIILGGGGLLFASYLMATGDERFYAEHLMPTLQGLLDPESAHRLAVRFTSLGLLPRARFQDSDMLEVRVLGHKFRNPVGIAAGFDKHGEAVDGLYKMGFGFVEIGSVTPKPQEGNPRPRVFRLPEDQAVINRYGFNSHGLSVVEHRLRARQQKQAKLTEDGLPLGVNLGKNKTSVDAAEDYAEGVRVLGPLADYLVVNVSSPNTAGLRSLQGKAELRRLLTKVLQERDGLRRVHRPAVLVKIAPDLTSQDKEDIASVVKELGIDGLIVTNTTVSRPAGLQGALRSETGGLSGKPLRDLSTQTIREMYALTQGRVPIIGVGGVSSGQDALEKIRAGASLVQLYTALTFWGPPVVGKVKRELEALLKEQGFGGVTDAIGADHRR

HCT-116 [16] = experiment: Induction of cell cycle arrest in human HCT-116 cells assessed as accumulation cells in S-phase at 0.25 uM for 24 hrs by PI/RNAse staining method (reference value: 30.2%); format: functional
[17] = Toxicity in BALB/c mouse assessed as histopathological changes in lung administered at 500 mg/kg, po for 14 days; format: organism-based; conditions: in vivo, 336 h, time 14 day
[18] = Toxicity in BALB/c mouse assessed as change in blood RDW administered at 500 mg/kg, po for 14 days; format: organism-based; conditions: in vivo, 336 h, time 14 day
Raji [19] = experiment: Induction of cell cycle arrest in human Raji cells assessed as accumulation cells in S-phase at 0.25 uM for 24 hrs by PI/RNAse staining method (reference value: 42.8%); format: functional
Raji [20] = experiment: Antiproliferative activity against human Raji cells assessed as inhibition of cell growth at 0.1 uM relative to control; format: functional
Kasumi 1 = experiment: Antiproliferative activity against human Kasumi 1 cells incubated for 96 hrs by MTT assay; format: functional, cell-based; conditions: Kasumi 1, 96 h
[21] = Toxicity in BALB/c mouse assessed as histopathological changes in spleen administered at 500 mg/kg, po for 14 days; format: organism-based; conditions: in vivo, 336 h, time 14 day
[22] = Lipophilicity, logP of compound; format: physicochemical; conditions: octanol/water
[23] = biological target: T1, Dihydroorotate dehydrogenase (quinone), mitochondrial; experiment: Inhibition of human DHODH at 1 uM for 30 mins relative to control
[24] = Toxicity in BALB/c mouse assessed as change in blood MPV administered at 500 mg/kg, po for 14 days; format: organism-based; conditions: in vivo, 336 h, time 14 day
[25] = Cytotoxicity against human HL7702 cells incubated for 96 hrs by MTT assay; format: toxicity, cell-based, L02
[26] = Toxicity in BALB/c mouse assessed as histopathological changes in liver administered at 500 mg/kg, po for 14 days; format: organism-based; conditions: in vivo, 336 h, time 14 day
A-375 = experiment: Antiproliferative activity against human A-375 cells incubated for 96 hrs by MTT assay; format: functional, cell-based; conditions: A-375, 96 h
HCT-116 [27] = experiment: Antitumor activity against human HCT-116 cells xenografted in NOD-SCID mouse assessed as tumor growth inhibition at 30 mg/kg, po administered for 24 days relative to control; format: functional; conditions: HCT-116, 576 h, time 24 day, read-out: TGI
Raji [28] = experiment: Antiproliferative activity against human Raji cells assessed as inhibition of cell growth at 0.2 uM relative to control; format: functional
[29] = biological target: T1, Dihydroorotate dehydrogenase (quinone), mitochondrial; experiment: Inhibition of human DHODH incubated for 30 mins
Raji [30] = experiment: Antiproliferative activity against human Raji cells assessed as inhibition of cell growth at 0.025 uM relative to control; format: functional
[31] = Toxicity in BALB/c mouse assessed as change in blood MCHC administered at 500 mg/kg, po for 14 days; format: organism-based; conditions: in vivo, 336 h, time 14 day
[32] = Cytotoxicity against human NCM460 cells incubated for 96 hrs by MTT assay; format: toxicity, cell-based
[33] = Cytotoxicity against human HCoEpiC cells incubated for 96 hrs by MTT assay; format: toxicity, cell-based
[34] = Toxicity in BALB/c mouse assessed as change in blood PLT administered at 500 mg/kg, po for 14 days; format: organism-based; conditions: in vivo, 336 h, time 14 day
Raji [35] = experiment: Antiproliferative activity against human Raji cells assessed as inhibition of cell growth; format: functional, cell-based; conditions: dose 0.0125-0.2 µM
[36] = Selectivity index ratio of IC50 for human HL7702 cells to IC50 for human Raji cells; format: toxicity; conditions: HL7702 cells and Raji cells, read-out: Ratio IC50
KG-1 = experiment: Antiproliferative activity against human KG-1 cells incubated for 96 hrs by MTT assay; format: functional, cell-based; conditions: KG-1, 96 h
HCT-116 [37] = experiment: Antiproliferative activity against human HCT-116 cells incubated for 96 hrs by MTT assay; format: functional, cell-based; conditions: HCT-116, 96 h
Raji [38] = experiment: Antiproliferative activity against human Raji cells assessed as inhibition of cell growth at 0.05 uM relative to control; format: functional
Raji [39] = experiment: Antiproliferative activity against human Raji cells incubated for 96 hrs by MTT assay; format: functional, cell-based
[40] = biological target: Voltage-gated inwardly rectifying potassium channel KCNH2 (Homo sapiens, UniProt Q12809); experiment: Inhibition of human ERG; format: toxicity
Sequence of Voltage-gated inwardly rectifying potassium channel KCNH2 (Q12809 whole entry): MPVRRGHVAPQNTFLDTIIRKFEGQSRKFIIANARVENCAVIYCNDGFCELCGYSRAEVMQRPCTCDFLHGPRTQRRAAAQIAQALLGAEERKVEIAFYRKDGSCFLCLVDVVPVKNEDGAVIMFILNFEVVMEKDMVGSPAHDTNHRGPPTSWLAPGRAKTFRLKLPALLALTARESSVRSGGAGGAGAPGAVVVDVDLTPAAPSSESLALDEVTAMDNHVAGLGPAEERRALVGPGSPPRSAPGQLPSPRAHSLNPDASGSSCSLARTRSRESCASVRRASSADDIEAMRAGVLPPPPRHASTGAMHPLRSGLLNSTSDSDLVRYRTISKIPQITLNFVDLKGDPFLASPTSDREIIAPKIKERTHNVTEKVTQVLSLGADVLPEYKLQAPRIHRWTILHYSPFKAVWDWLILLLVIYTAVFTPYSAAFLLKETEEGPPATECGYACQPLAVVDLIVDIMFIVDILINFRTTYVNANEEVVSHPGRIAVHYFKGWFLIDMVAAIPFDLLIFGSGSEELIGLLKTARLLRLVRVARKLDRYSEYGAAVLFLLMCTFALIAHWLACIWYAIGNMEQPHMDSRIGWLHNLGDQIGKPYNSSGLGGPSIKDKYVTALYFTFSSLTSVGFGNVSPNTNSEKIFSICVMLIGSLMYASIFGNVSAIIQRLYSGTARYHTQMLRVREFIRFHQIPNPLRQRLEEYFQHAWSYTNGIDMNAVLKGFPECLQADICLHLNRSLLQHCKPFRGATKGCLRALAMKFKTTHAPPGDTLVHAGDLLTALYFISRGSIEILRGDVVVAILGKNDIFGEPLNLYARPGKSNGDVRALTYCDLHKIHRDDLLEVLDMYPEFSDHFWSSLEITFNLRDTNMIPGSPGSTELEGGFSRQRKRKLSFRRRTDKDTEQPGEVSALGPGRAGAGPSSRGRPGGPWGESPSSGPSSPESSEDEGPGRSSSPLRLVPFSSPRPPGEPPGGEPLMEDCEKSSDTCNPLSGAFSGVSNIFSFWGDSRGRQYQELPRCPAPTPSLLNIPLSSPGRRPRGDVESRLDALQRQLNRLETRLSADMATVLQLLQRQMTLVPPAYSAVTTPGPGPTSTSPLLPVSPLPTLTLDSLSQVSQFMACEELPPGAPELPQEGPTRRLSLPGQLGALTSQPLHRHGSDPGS

[41] = Toxicity in BALB/c mouse assessed as decrease in alkaline phosphatase administered at 500 mg/kg, po for 14 days; format: organism-based; conditions: in vivo, 336 h, time 14 day
Raji [42] = experiment: Induction of cell cycle arrest in human Raji cells assessed as accumulation cells in S-phase at 0.125 uM for 24 hrs by PI/RNAse staining method (reference value: 42.8%); format: functional
[43] = Toxicity in BALB/c mouse assessed as change in blood WBC administered at 500 mg/kg, po for 14 days; format: organism-based; conditions: in vivo, 336 h, time 14 day
[44] = Toxicity in BALB/c mouse assessed as change in blood neutrophil administered at 500 mg/kg, po for 14 days; format: organism-based; conditions: in vivo, 336 h, time 14 day
HCT-116 [45] = experiment: Antiproliferative activity against human HCT-116 cells assessed as inhibition of cell growth at 0.0125 to 0.2 uM; format: functional, cell-based; conditions: dose 0.0125-0.2 µM
SUD4 = experiment: Antiproliferative activity against human SU-DHL-4 cells incubated for 96 hrs by MTT assay; format: functional, cell-based; conditions: SU-DHL-4, 96 h
Raji [46] = experiment: Antitumor activity against human Raji cells xenografted in NOD-SCID mouse assessed as tumor growth inhibition at 30 mg/kg, po administered for 24 days relative to control; format: functional; conditions: 576 h, time 24 day, read-out: TGI
Raji [47] = experiment: Antiproliferative activity against human Raji cells assessed as inhibition of cell growth at 0.0125 uM relative to control; format: functional
[48] = Toxicity in NOD-SCID mouse xenografted with human Raji cells assessed as change in body weight at 30 mg/kg, po administered for 24 days; format: organism-based; conditions: in vivo, 576 h, time 24 day
[49] = Toxicity in BALB/c mouse assessed as lethal dose administered orally for 14 days; conditions: in vivo, route po, time 14 day
[50] = Toxicity in BALB/c mouse assessed as histopathological changes in kidney administered at 500 mg/kg, po for 14 days; format: organism-based; conditions: in vivo, 336 h, time 14 day
[51] = Toxicity in BALB/c mouse assessed as change in blood RBC administered at 500 mg/kg, po for 14 days; format: organism-based; conditions: in vivo, 336 h, time 14 day
[52] = Toxicity in BALB/c mouse assessed as change in blood MCV administered at 500 mg/kg, po for 14 days; format: organism-based; conditions: in vivo, 336 h, time 14 day
[53] = Toxicity in BALB/c mouse assessed as change in blood HCT administered at 500 mg/kg, po for 14 days; format: organism-based; conditions: in vivo, 336 h, time 14 day
[54] = Aqueous solubility of compound; format: physicochemical; conditions: buffer

With `CCn1c(CO)nn(-c2cc(O[C@@H](C)C(F)(F)F)c(C(=O)Nc3c(F)cccc3Cl)cc2F)c1=O` the Activity [1] was “Non-Toxic”, the Activity (Mus musculus) was “Active” and the Activity [2] was “Toxic”. The inhibition in vivo at 1.5 mg/kg (HCT-116 [3]) was 44.4%, the Activity [4] was “Toxic” and the inhibition in vivo at 1.5 mg/kg (Raji [5]) was 71.4%. For the same molecule, the Activity [6] was “Non-Toxic”.

With `C/C(O)=C(\C#N)C(=O)Nc1cc(O[C@@H](C)C(F)(F)F)c(C(=O)c2ccccc2Cl)cc1F` the Activity (HCT-116 [7]) was 44.6%, the Activity [8] was “Non-Toxic” and the Activity (Raji [9]) was 54.2%. For the same molecule, the IC50 (U-937) was 220 nM, the Activity (HCT-116 [10]) was 58.9% and the “inhibition (INH)” value (Raji [11]) was <5%. For the same molecule, the Activity [12] was “Non-Toxic”, the Activity [13] was “Non-Toxic” and the Activity [14] was “Non-Toxic”. The inhibition [15] was 84.2%, the Activity (HCT-116 [16]) was 60.6% and the Activity [17] was “Non-Toxic”. The Activity [18] was “Non-Toxic”, the Activity (Raji [19]) was 67.1% and the inhibition at 0.1 µM (Raji [20]) was 52.2%. For the same molecule, the IC50 (Kasumi 1) was 100 nM, the Activity [21] was “Non-Toxic” and the logP [22] was 2.49. The inhibition [23] was 98.4%, the Activity [24] was “Non-Toxic” and the IC50 at 96 h [25] was 1100 nM. For the same molecule, the Activity [26] was “Toxic”, the IC50 (A-375) was 250 nM and the inhibition in vivo at 30 mg/kg (HCT-116 [27]) was 42.1%. The inhibition at 0.2 µM (Raji [28]) was 60.9%, the IC50 [29] was 10.9 nM and the inhibition at 0.025 µM (Raji [30]) was 20.7%. The Activity [31] was “Non-Toxic”, the IC50 at 96 h [32] was 14200 nM and the IC50 at 96 h [33] was 6800 nM. The Activity [34] was “Non-Toxic”, the inhibition (Raji [35]) was “Dose-Dependent Effect” and the selectivity ratio [36] was 18.3. It also gave an IC50 (KG-1) of 430 nM, an IC50 (HCT-116 [37]) of 140 nM and an inhibition at 0.05 µM (Raji [38]) of 36.8%. For the same molecule, the IC50 (Raji [39]) was 60 nM, the IC50 [40] was > 100000 nM and the Activity [41] was “Non-Toxic”. For the same molecule, the Activity (Raji [42]) was 60.6%, the Activity [43] was “Non-Toxic” and the Activity [44] was “Non-Toxic”. The Activity (HCT-116 [45]) was “Active”, the IC50 (SUD4) was 750 nM and the inhibition in vivo at 30 mg/kg (Raji [46]) was 58.3%. For the same molecule, the inhibition at 0.0125 µM (Raji [47]) was 17%, the Activity [48] was “Non-Toxic” and the LD50 at 336 h [49] was 500 mg/kg. The Activity [50] was “Non-Toxic”, the Activity [51] was “Non-Toxic” and the Activity [52] was “Non-Toxic”. The Activity [53] was “Non-Toxic” and the solubility [54] was 61.7 µg/mL (≈ 131 µM).
